{"source": "paper PMC4205289", "about": "“Triptolide inhibits human immunodeficiency virus type 1 replication by promoting proteasomal degradation of Tat protein” (Retrovirology, 2014)", "key": {"HIV-1 mRNA": {"test_system": "HIV-1 mRNA", "test": "Reverse-transcription PCR of viral mRNA (Gag region) in infected Jurkat cells", "format": "cell-based", "conditions": "HIV-1 NL4-3 MOI 0.5, 12 h post-infection, 118-D-24 50 μM, flavopiridol 20 nM, triptolide 5 nM", "procedure": "(§1) The effects of the test compounds on HIV-1 proviral DNA and mRNA synthesis were analyzed by PCR. Jurkat cells were grown in 24-well plates and infected with the HIV-1 NL4-3 strain at an MOI of 0.5, and then test compounds were added at the desired concentrations. After incubation for 12 h, genomic DNA and mRNA from the infected cells were isolated using a Genomic DNA Mini Preparation Kit (Beyotime, China) and TRIzol reagent (Invitrogen Life Technologies), respectively. Nested PCR was used for the amplification of integrated proviral DNA, as previously described. To determine viral mRNA expression levels, 1 μg of RNA was treated with RQ1 RNase-Free DNase (Promega) and reverse transcribed using M-MLV Reverse Transcriptase (Promega) and random primers (Promega). An aliquot of cDNA was used as template for amplification of the HIV-1 Gag region as described elsewhere. […]\n(§2) All of the PCR products were visualized on a UV transilluminator in 2% agarose gels stained with ethidium bromide. In preliminary experiments, the exponential range of the PCR amplification curve was determined for all of the PCR products by varying the amount of input DNA and the number of PCR cycles. Based on these experiments, appropriate conditions were chosen to perform semi-quantitative PCRs."}, "HIV-1 proviral DNA": {"test_system": "HIV-1 proviral DNA", "test": "Nested PCR of integrated proviral DNA in infected Jurkat cells", "format": "cell-based", "conditions": "HIV-1 NL4-3 MOI 0.5, 12 h post-infection, 118-D-24 50 μM, flavopiridol 20 nM, triptolide 5 nM", "procedure": "as §1, §2"}, "[1]": {"test_system": "HIV-1 molecular clone pNL4-3.Luc.R-E-", "test": "Transient gene expression assay, pNL4-3.Luc.R-E- transfected into Jurkat cells", "format": "cell-based", "conditions": "24 h, 118-D-24 50 μM, flavopiridol 20 nM, triptolide 0.2 ~ 5 nM", "procedure": "Figure 3 Triptolide inhibits HIV-1 transcription. (A) Time-of-addition analysis. TZM-bl cells were infected with HIV-1 (MOI = 0.5, strain NL4-3), and the virus inoculum was removed after 1 h of absorption. Test compounds (dextran sulfate at 10 μg/mL, zidovudine at 1 μM and triptolide at 5 nM) were added at the indicated time points after infection. Reporter signal was monitored at 48 h post-infection as a measure of viral replication. (B) The effect of triptolide on HIV-1 proviral DNA formation. Jurkat cells were infected with HIV-1 (MOI = 0.5, strain NL4-3) in the presence of the test compounds (INI 118-D-24, 50 μM; flavopiridol, 20 nM; and triptolide, 5 nM). Proviral DNA synthesis was determined by nested PCR analysis at 12 h post-infection. (C) The effect of triptolide on HIV-1 mRNA synthesis. Jurkat cells were infected with HIV-1(MOI = 0.5, strain NL4-3) in the presence of the test compounds (INI 118-D-24, 50 μM; flavopiridol, 20 nM; triptolide, 5 nM). Viral mRNA (the Gag region) content was determined by reverse-transcription PCR analysis 12 h post-infection. (D) Inhibition of luciferase expression encoded in pNL4-3.Luc.R-E- by tiptolide. […]\nTo further confirm that triptolide interferes with HIV-1 transcription, a transient gene expression assay was performed. […] At 24 h after transfection, viral gene transcription (indicated by luciferase activity) was determined. […]"}, "HIV-1 NL4-3": {"test_system": "HIV-1 NL4-3", "test": "Time-of-addition experiment in TZM-bl cells", "format": "cell-based", "procedure": "TZM-bl cells seeded in 96-well plates (2 × 10^4 /well) were infected with HIV-1 NL4-3 (MOI = 1). The virus inoculum was removed after 1 h of infection. Test compounds were added at different time points after infection (0 h, 2 h, 4 h, 6 h, 8 h, and 10 h). Dextran sulfate was added at 10 μg/mL, zidovudine at 1 μM and triptolide at 5 nM. At 48 h post-infection, the virus replication level was determined by analyzing luciferase activity in the cells as described above."}, "FLAG-Tat": {"test_system": "T1, FLAG-Tat", "T1 construct": "expressed in transfected cells; host or cells: HeLa", "test": "Proteasome inhibition rescue of Tat expression, Western blot, HeLa cells", "format": "cell-based, HIV-1 NL4-3", "procedure": "Figure 6 Triptolide reduces Tat protein stability by enhancing proteasomal degradation of Tat. (A) The effect of triptolide on Tat mRNA levels. HeLa cells were transfected with pEF1-Tat in the presence of increasing concentrations of triptolide. Cells were harvested 48 h post-transfection. The steady-state mRNA levels of Tat and GAPDH were examined using semi-quantitative reverse transcription PCR analysis. RT, reverse transcriptase. (B) The effect of triptolide on Tat protein degradation. HeLa cells were transfected with pEF1-FLAG-Tat in the presence of 5 nM triptolide or vehicle (DMSO). At 28 h post-transfection, cells were treated with 20 μg/mL of CHX to arrest protein synthesis. At 0, 1, 2, 3 h post-treatment, cells were harvested to determine protein expression levels using Western blot analysis. (C) The band intensities of FLAG-Tat in panel B were measured, and their natural log values were plotted as a function of time. Results were presented as the mean plus the standard deviations (n = 3). (D) Proteasome inhibition restores Tat protein expression. HeLa cells were transfected with pEF1-FLAG-Tat in the presence or absence of 5 nM triptolide. At 48 h post-transfection, cells were treated with 20 μM of MG132, and cultured for an additional 3 h before harvest. Protein expression levels were determined by Western blot analysis. TEXT PRINTED IN THE PICTURE: (C) DMSO: Half-lives: 2.0 h | (C) Triptolide: Half-lives: 0.4 h\nCells were washed with phosphate buffered saline (PBS) and lysed with radio immunoprecipitation assay lysis buffer supplemented with complete mini protease inhibitor cocktail (Roche) at 4°C for 1 h. Proteins from cell lysates were separated by SDS-PAGE and transferred to polyvinylidene difluoride membranes. After overnight incubation with primary antibodies at 4°C, each blot was probed with horseradish peroxidase-conjugated secondary antibody. Immunoreactive signals were detected with an enhanced chemiluminescence substrate (Thermo Scientific) using an AlphaEaseH FC Imaging System (Alpha Innotech Corporation)."}}}
{"molecule": "CN1CC[C@H](c2c(O)cc(O)c3c(=O)cc(-c4ccccc4Cl)oc23)[C@H](O)C1", "note": "[flavopiridol, reference compound]", "values": [{"measurement": "effect on viral mRNA synthesis", "setting": "HIV-1 mRNA", "value": "repress viral mRNA synthesis"}, {"measurement": "effect on proviral DNA formation (integration)", "setting": "HIV-1 proviral DNA", "value": "no effect on virus integration"}, {"measurement": "effect on luciferase expression from transfected pNL4-3.Luc.R-E-", "setting": "[1]", "value": "significantly reduced luciferase expression"}]}
{"molecule": "Cc1cn([C@H]2C[C@H](N=[N+]=[N-])[C@@H](CO)O2)c(=O)[nH]c1=O", "note": "[zidovudine]", "values": [{"measurement": "inhibition at 1 µM", "setting": "HIV-1 NL4-3; Human immunodeficiency virus 1, NL43, TZM-bl, read-out: inhibitory activity retained", "value": 71, "unit": "%"}]}
{"molecule": "MG132", "values": [{"measurement": "increase of Tat level", "setting": "FLAG-Tat; 20 μM MG132 for 3 h, without triptolide, relative to DMSO control", "value": 30, "unit": "%"}, {"measurement": "restoration of Tat protein, increase as % of Tat level in DMSO control", "setting": "FLAG-Tat; 20 μM MG132 for 3 h in the presence of 5 nM triptolide", "value": 30, "unit": "%"}]}
{"molecule": "Dextran sulfate sodium salt", "values": [{"measurement": "time-of-addition inhibition profile", "setting": "HIV-1 NL4-3; dextran sulfate at 10 μg/mL, luciferase at 48 h", "value": "dramatic early loss in activity"}]}
